Data as given in patent US10208056B2, “Condensed tricyclic compounds as protein kinase inhibitors” (FUNDACIÓN DEL SECTOR PÚBLICO ESTATAL CENTRO NACIONAL DE …, priority 2015, dated 2019).
Like-named read-outs stand apart in the source and are kept apart here.

How the values were obtained:
[1] = target: Haspin kinase (Homo sapiens (Human), UniProt Q8TF76); assay: Haspin kinase assay (ADP-Glo); assay type: biochemical; details: ATP 150 μM
Description: The kinase assay relies on ADP-Glo^KM biochemical kinase assay (Promega). This is a luminescent kinase assay that measures ADP formed from a kinase reaction. Then ADP is converted into ATP, which is transformed into a light signal by Ultra-Glo™ Luciferase. The luminescent signal positively correlates with kinase activity. The assay measures the intrinsic ATPase activity (in the absence of peptidic substrate as phosphate acceptor).
The enzyme was purchase from Invitrogen (PV5708) as the kinase domain of GST tagged recombinant human proteins.
Assay conditions were as indicated by the kit manufacturers with the following adaptations: • Assay buffer: 15 mM HEPES pH 7.4, 20 mM NaCl, 1 mM EGTA, 0.02% Tween 20, 10 mM MgCl2, 0.1 mg/ml BGG • Assay volume: 20 μl • Incubation time and temperature: 60 min at 30° C. • Haspin concentration: 20 nM • ATP concentration: 150 μM • Tested compound: Serial 1:3 dilutions • Final DMSO concentration in the assay: 1%
Assays were performed in 384-well plates. The final read out was generated using an EnVision plate reader (Perkin-Elmer). Luminescent relative units are normalized against the control activity included for each compound (i.e., 100% Haspin activity, without compound) and the percentage of inhibition is calculated.

[2] = tested on: MV4:11; assay: In vitro cell proliferation assay (CellTiter-Glo), MV4:11; assay type: cell-based
Description: (§1) The in vitro potency of the compounds was measured by the cell proliferation assay CellTiter-Glo® Luminescent Cell Viability Assay, commercially available from Promega Corp., Madison, Wis. This homogeneous assay method is based on the recombinant expression of Coleoptera luciferase (U.S. Pat. No. 5,583,024; U.S. Pat. No. 5,674,713; U.S. Pat. No. 5,700,670) and determines the number of viable cells in culture based on quantitation of the ATP present, an indicator of metabolically active cells (Crouch et al (1993) J. Immunol. Meth. 160:81-88; U.S. Pat. No. 6,602,677). The CellTiterGlo® Assay was conducted […] it amenable to automated high throughput screening (HTS) (Cree et al (1995) AntiCancer Drugs 6:398-404).
(§2) The homogeneous assay procedure involves adding the single reagent (CellTiter-Glo® Reagent) directly to cells cultured in serum-supplemented medium. Cell washing, removal of medium and multiple pipetting steps are not required. The system detects as few as 15 cells/well in a 96-well format in 10 minutes after adding reagent and mixing.
(§3) The homogeneous “add-mix-measure” format results in cell lysis and generation of a luminescent signal proportional to the amount of ATP present. The amount of ATP is directly proportional to the number of cells present in culture. The CellTiter-Glo® Assay generates a “glow-type” luminescent signal, produced by the luciferase reaction, which has a half-life generally greater than five hours, depending on cell type and medium used. Viable cells are reflected in relative luminescence units (RLU). The substrate, Beetle Luciferin, is oxidatively decarboxylated by recombinant firefly luciferase with concomitant conversion of ATP to AMP and generation of photons. The extended half-life eliminates the need to use reagent injectors and provides flexibility for continuous or batch mode processing of multiple plates. This cell proliferation assay can be used with various multiwell formats, e.g. 96 or 384 well format. Data can be recorded by luminometer or CCD camera imaging device. The luminescence output is presented as relative light units (RLU), measured over time.

[3] = tested on: SW620; assay: In vitro cell proliferation assay (CellTiter-Glo), SW620; assay type: cell-based, human
Description: as §1, §2, §3

[4] = tested on: Molm13; assay: In vitro cell proliferation assay (CellTiter-Glo), Molm13; assay type: cell-based
Description: as §1, §2, §3

[5] = target: CDK19/Cyclin C (Homo sapiens (Human), UniProt Q9BWU1); assay: CDK19/Cyclin C binding assay (LanthaScreen Eu-Kinase Binding Assay); details: read-out: CDK19-CYCC IC50
CDK19/Cyclin C, sequence (Q9BWU1 whole entry): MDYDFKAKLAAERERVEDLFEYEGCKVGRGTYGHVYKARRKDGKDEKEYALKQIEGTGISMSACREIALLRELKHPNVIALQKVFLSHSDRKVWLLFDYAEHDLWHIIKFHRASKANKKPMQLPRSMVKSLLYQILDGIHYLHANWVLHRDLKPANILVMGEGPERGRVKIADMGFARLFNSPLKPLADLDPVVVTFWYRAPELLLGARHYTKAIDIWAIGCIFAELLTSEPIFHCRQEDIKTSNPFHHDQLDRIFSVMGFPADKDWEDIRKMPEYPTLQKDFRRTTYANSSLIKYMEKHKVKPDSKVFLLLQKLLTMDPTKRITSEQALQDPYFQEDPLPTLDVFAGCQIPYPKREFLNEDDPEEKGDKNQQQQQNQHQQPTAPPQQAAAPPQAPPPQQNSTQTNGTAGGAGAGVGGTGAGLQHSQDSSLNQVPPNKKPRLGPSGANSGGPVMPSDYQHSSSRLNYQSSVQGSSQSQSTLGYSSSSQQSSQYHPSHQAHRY
CDK19/Cyclin C, sequence (P24863 whole entry partner): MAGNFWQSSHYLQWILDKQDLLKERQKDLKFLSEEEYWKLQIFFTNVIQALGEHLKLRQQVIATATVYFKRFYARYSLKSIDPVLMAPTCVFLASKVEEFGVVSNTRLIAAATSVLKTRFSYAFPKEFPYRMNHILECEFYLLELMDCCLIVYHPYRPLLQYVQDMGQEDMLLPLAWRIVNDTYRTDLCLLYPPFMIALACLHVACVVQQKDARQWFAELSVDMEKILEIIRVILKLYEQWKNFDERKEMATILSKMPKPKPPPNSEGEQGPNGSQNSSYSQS
Description: The binding assay relies on the LanthaScreen™ Eu-Kinase Binding Assay (Invitrogen).
Assay conditions were as indicated by the kit manufacturers with the following adaptations: • Assay buffer: 50 mM HEPES, pH 7.5, 1 mM EGTA, 0.01% Brij-35, 10 mM MgCl2 • Assay volume: 20 μl • Incubation time and temperature: 60 min at 25° C. • Cdk19-Cyclin C concentration: 2 nM • Tracer concentration: 20 nM • (Eu)-labelled anti-GST antibody concentration: 2 nM • Tested compound: Serial 1:3 dilutions • Final DMSO concentration in the assay: 1%
(§4) Assays were performed in 384-well plates. The final read out was generated using an EnVision plate reader (Perkin-Elmer).

[6] = tested on: MDA-MB-231; assay: In vitro cell proliferation assay (CellTiter-Glo), MDA-MB-231; assay type: cell-based
Description: as §1, §2, §3

[7] = target: CDK8/Cyclin C (Homo sapiens (Human), UniProt P49336); assay: CDK8/Cyclin C binding assay (LanthaScreen Eu-Kinase Binding Assay); details: for IC50: binding assay
CDK8/Cyclin C, sequence (P49336 whole entry): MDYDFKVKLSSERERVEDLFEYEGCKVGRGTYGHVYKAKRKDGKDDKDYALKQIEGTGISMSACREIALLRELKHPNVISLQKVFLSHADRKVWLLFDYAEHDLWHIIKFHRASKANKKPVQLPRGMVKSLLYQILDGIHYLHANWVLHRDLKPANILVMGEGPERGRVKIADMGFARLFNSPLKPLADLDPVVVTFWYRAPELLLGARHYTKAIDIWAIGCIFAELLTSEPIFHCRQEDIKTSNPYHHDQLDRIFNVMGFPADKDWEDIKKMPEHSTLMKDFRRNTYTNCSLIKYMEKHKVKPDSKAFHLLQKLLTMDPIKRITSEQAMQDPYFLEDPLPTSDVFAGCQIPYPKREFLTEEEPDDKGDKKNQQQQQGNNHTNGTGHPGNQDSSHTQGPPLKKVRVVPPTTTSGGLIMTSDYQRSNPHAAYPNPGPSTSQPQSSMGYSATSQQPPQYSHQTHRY
CDK8/Cyclin C, sequence (P24863 whole entry partner): as the sequence (P24863 whole entry partner) above
Description: The enzyme has been purchase from Invitrogen (PV4402) as a dimer of full-length His-tagged recombinant human proteins.
as §4

[8] = tested on: SW620; assay: Combination assay, SW620; assay type: cell-based, human; details: SW620, chemotherapeutic alone, read-out: Chemo GI50
Description: The combination index (CI) of combinations of certain example compounds and various chemotherapeutic agents in the CellTitetI-Glo® in vitro cell proliferation assays may be tested. A combination index score is calculated by the Chou and Talalay method (CalcuSyn software, Biosoft). The strength of synergy is scored using the ranking system Chou and Talalay: CI less than 0.8 indicates synergy, CI between 0.8 and 1.2 indicates additivity and CI greater than 1.2 indicates antagonism.
The EC50 values of representative combinations are also calculated. The individually measured EC50 values of the chemotherapeutic agent and the example compounds are compared to the EC50 value of the combination. The cell lines are characterised by tumor type. Combination assays are performed as described in: “Pim 1 kinase inhibitor ETP-45299 suppresses cellular proliferation and synergizes with PI3K inhibition”. Blanco-Aparicio, Carmen; Collazo, Ana Maria Garcia; Oyarzabal, Julen; Leal, Juan F.; Albaran, Maria Isabel; Lima, Francisco Ramos; Pequeno, Belen; Ajenjo, Nuria; Becerra, Mercedes; Alfonso, Patricia; Reymundo, Maria Isabel; Palacios, Irene; Mateos, Genoveva; Quinones, Helena; Corrionero, Ana; Carnero, Amancio; Pevarello, Paolo; Lopez, Ana Rodriguez; Fominaya, Jesus; Pastor, Joaquin; Bischoff, James R. Cancer Letters (Shannon, Ireland) 2011, 300(2), 145-153

[9] = target: intracellular CDK8 (Homo sapiens (Human), UniProt P49336); assay: Endogenous phosphoSTAT1 inhibition in SW620 cells growing in 10% FBS; assay type: cell-based; details: semiquantitative, read-out: SW620 P-STAT1(S727)
intracellular CDK8, sequence (P49336 whole entry): as the sequence (P49336 whole entry) above
intracellular CDK8, sequence (P24863 whole entry partner): as the sequence (P24863 whole entry partner) above
intracellular CDK8, sequence (Q93074 whole entry partner): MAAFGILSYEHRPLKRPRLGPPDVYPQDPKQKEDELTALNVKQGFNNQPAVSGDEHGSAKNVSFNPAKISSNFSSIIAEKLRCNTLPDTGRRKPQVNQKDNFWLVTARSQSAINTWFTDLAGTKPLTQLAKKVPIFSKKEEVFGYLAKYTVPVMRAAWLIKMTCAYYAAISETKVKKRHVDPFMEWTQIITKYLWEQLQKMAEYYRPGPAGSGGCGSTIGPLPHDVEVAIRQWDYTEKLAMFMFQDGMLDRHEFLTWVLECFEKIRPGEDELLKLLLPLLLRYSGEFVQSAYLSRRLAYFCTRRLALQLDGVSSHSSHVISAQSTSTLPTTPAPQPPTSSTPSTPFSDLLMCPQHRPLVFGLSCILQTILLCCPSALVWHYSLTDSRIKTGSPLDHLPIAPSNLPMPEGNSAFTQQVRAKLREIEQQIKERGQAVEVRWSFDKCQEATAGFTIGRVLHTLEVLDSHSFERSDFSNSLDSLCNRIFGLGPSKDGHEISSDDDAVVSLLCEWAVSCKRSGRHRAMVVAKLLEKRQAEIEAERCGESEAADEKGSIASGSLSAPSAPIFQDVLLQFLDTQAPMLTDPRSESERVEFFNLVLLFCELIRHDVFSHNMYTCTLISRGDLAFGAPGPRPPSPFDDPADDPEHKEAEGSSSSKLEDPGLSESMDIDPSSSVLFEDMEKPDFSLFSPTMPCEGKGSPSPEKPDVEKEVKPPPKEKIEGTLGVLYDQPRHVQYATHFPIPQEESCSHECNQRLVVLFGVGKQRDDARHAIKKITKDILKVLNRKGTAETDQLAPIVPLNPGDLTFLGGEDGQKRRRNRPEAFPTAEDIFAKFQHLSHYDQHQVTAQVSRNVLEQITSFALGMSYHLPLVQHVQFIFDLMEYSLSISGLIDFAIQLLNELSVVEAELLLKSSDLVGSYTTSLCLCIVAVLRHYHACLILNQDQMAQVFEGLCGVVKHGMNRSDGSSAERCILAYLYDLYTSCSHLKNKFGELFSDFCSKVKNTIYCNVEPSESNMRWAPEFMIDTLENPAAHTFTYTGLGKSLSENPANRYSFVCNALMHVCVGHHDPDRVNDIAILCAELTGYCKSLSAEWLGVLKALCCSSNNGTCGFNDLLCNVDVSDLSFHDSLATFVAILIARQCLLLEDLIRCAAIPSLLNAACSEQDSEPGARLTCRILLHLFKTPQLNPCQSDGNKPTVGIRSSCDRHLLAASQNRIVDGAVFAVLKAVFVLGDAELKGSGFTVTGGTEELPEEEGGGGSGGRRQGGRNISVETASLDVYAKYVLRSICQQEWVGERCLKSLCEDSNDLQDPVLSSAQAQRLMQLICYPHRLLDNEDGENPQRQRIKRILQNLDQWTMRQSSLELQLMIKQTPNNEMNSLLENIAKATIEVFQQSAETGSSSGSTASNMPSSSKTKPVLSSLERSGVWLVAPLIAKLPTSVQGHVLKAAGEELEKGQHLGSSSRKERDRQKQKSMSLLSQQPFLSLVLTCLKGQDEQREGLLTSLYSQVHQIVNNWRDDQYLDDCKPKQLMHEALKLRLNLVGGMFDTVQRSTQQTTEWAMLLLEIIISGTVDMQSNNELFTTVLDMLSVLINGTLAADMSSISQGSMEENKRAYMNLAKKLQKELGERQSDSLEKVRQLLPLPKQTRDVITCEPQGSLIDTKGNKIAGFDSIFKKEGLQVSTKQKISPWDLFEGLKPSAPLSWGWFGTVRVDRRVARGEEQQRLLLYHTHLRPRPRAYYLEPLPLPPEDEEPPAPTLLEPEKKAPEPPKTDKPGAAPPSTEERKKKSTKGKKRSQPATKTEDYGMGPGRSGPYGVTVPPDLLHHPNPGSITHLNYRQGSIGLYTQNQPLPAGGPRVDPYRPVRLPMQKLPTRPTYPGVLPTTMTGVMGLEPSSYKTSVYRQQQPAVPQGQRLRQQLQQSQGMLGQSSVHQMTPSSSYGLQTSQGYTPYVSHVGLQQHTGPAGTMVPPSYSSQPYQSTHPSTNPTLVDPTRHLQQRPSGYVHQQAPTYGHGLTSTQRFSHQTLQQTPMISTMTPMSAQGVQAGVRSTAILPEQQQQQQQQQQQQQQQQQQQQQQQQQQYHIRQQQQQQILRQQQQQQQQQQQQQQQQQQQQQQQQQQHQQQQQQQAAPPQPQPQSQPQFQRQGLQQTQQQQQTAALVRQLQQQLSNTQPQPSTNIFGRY
Description: Endogenous phosphoSTAT1 inhibition can be screened in cells growing in 10% FBS. Cells are plated as described before and treated for 8 h with compounds as described before. Then cells are lysated and phospho STAT1 is evaluated as described before. The percentage of phosphorylated STAT1 vs total STAT1 in cells treated with DMSO is taken as hundred percent of phosphorylation. The percentage of STAT1 phosphorylation is finally plotted against concentration for each compound and EC50s for intracellular CDK8 inhibition are calculated using ActivityBase from IDBS.

[10] = Homo sapiens, MV4-11, growth inhibition, semiquantitative, read-out: GI50 MV4:11
[11] = Homo sapiens, SW-620, growth inhibition, semiquantitative, read-out: GI50 SW620
[12] = Homo sapiens, MOLM-13, growth inhibition, semiquantitative, read-out: GI50 Molm13
[13] = Homo sapiens, MDA-MB-231, growth inhibition, semiquantitative, read-out: GI50 MDA-MB-231

Haspin kinase, sequence (Q8TF76 484-798): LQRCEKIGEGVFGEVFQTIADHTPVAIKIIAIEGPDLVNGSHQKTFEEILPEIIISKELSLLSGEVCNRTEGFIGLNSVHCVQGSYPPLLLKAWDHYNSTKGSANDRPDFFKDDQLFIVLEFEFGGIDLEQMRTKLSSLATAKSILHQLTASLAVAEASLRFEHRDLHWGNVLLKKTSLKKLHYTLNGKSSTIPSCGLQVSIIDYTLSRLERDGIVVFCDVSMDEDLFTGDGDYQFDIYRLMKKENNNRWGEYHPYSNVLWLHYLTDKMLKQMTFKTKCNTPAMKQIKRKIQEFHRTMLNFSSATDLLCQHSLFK

| IC50 [1] [nM] | GI50 [2, 10] [nM] | GI50 [3, 11] [nM] | GI50 [4, 12] [nM] | IC50 [5] [nM] | GI50 [6, 13] [nM] | IC50 [7] [nM] | SMILES | other results |
| --- | --- | --- | --- | --- | --- | --- | --- | --- |
| 15.9 | < 1000 | 10000 to 100000 | < 1000 | 1.41 | 1000 to 10000 | 1.96 | NC(=O)c1cc2c([nH]1)-c1ccncc1OC21CCC1 [Example 15] | EC50 [9]: < 500 nM |
| 53.6 |  |  |  | 8.22 |  | 4.18 | NC(=O)c1cc2c([nH]1)-c1ccncc1OC21CCCCC1 [Example 13] |  |
| 38.1 | 1000 to 10000 |  |  | 11.9 | 10000 to 100000 | 2.59 | CC1(C)Oc2cnccc2-c2[nH]c(C(N)=O)cc21 [Example 1] |  |
| 53.3 |  |  |  | 550 |  | 412 | Cl.NC(=O)c1cc2c([nH]1)-c1ccncc1OC21CCNCC1 [Example 12] |  |
| 24.2 | < 1000 | 1000 to 10000 | < 1000 | 0.827 | 1000 to 10000 | 0.262 | NC(=O)c1cc2c(n1CCF)-c1ccncc1OC21CCC1 [Example 76] | EC50 [9]: < 500 nM |
|  |  | < 1000 |  | 47.3 |  | 1.41 | NC(=O)c1cc2c([nH]1)-c1ccncc1OC2C1CCCCC1 (stereo not shown) [Example 57] |  |
| 138 | < 1000 | 1000 to 10000 | < 1000 | 6.1 | 1000 to 10000 | 3.83 | Cn1c(C(N)=O)cc2c1-c1ccncc1OC21CCOCC1 [Example 81] |  |
|  | < 1000 | 1000 to 10000 | < 1000 | 0.77 | 1000 to 10000 | 0.314 | CCn1c(C(N)=O)cc2c1-c1ccncc1OC21CCCCC1 [Example 80] | EC50 [9]: < 500 nM |

More lines, now with the values behind:

| SMILES | IC50 [1] [nM] | GI50 [2, 10] [nM] | GI50 [3, 11] [nM] | GI50 [4, 12] [nM] | IC50 [5] [nM] | GI50 [6, 13] [nM] | IC50 [7] [nM] | other results |
| --- | --- | --- | --- | --- | --- | --- | --- | --- |
| NC(=O)c1cc2c([nH]1)-c1ccncc1OC21CCN(CC(F)(F)F)CC1 [Example 18] | 344 | 1000 to 10000 | 10000 to 100000 | 1000 to 10000 | 40.5 | 10000 to 100000 | 20.2 |  |
| Cn1c(C(N)=O)cc2c1-c1ccncc1OC2(C)C [Example 22] | 87.4 |  |  |  | 1.41 |  | 1.98 | GI50 ([2]; Homo sapiens, MV4-11, read-out: GI50 MV4:11): < 1000 nM; GI50 ([3]; Homo sapiens, SW-620, read-out: GI50 SW620): 10000 to 100000 nM; GI50 ([4]; Homo sapiens, MOLM-13, read-out: GI50 Molm13): 1000 to 10000 nM; GI50 ([6]; Homo sapiens, MDA-MB-231, read-out: GI50 MDA-MB-231): 1000 to 10000 nM |
| CCn1c(C(N)=O)cc2c1-c1ccncc1O[C@H]2C1CCCCC1 (single isomer, unassigned) [Example 89] | 95.2 |  |  |  | 1.41 |  | 0.407 | GI50 ([2]; growth inhibition, semiquantitative, read-out: GI50 MV4:11): < 1000 nM; GI50 ([3]; growth inhibition, semiquantitative, read-out: GI50 SW620): 10000 to 100000 nM; GI50 ([4]; growth inhibition, semiquantitative, read-out: GI50 Molm13): < 1000 nM; GI50 ([6]; growth inhibition, semiquantitative, read-out: GI50 MDA-MB-231): 10000 to 100000 nM |
| COc1ccc(S(=O)(=O)Nc2cccnc2Nc2ccc(O)cc2)cc1 [ABT-751, reference compound] |  |  |  |  |  |  |  | GI50 ([8]; Homo sapiens, SW-620): 500 nM |
| CC1(C)Oc2cncc(Cl)c2-c2[nH]c(C(N)=O)cc21 [Example 34] | 31.8 | < 1000 |  |  | 1.41 |  | 2.1 |  |
| CC1(C)Oc2cnccc2-c2[nH]c(C(=O)O)c(-c3ccc(S(N)(=O)=O)cc3)c21 [Example 30] | 2740 |  |  |  | 20.7 |  | 8.94 | CDK8 selectivity [7]: high CDK8 selectivity |
| NC(=O)c1cc2c([nH]1)-c1ccncc1OC21CCN(CCc2ccccc2)CC1 [Example 46] | 81.3 | < 1000 | 1000 to 10000 | < 1000 | 585 | 1000 to 10000 | 445 |  |
| CCn1c(C(N)=O)c(-c2ccccc2C(F)(F)F)c2c1-c1ccncc1OC2(C)C [Example 75] | 233 |  |  |  | 16.7 |  | 14.4 |  |
| CC1(C)Oc2cnccc2-c2[nH]c(C(N)=O)c(C3CC3)c21 [Example 86] | 34.5 | < 1000 | 1000 to 10000 | 1000 to 10000 | 0.48 | 1000 to 10000 | 4.33 | EC50 [9]: < 500 nM |
| CC1(C)Oc2cnccc2-c2[nH]c(C(N)=O)c(Cl)c21 [Example 28] | 26.6 |  |  |  | 16.6 |  | 9.32 |  |
| COCCn1c(C(N)=O)cc2c1-c1ccncc1OC21CCOCC1 [Example 87] | 136 | 1000 to 10000 | 10000 to 100000 | 10000 to 100000 | 20.9 | 10000 to 100000 | 14.2 |  |
| CCn1c(C(N)=O)c(-c2cccc(OC)c2)c2c1-c1ccncc1OC2(C)C [Example 88] | 106 | < 1000 | 10000 to 100000 | 1000 to 10000 |  | 10000 to 100000 | 13.9 |  |
| CC1(C)Oc2cnccc2-c2c1cc(C(N)=O)n2CC(F)(F)F [Example 53] | 186 |  |  |  | 19.4 |  | 21.6 |  |
| Cn1c(C(=O)O)cc2c1-c1ccncc1OC2(C)C [Example 23] | 648 |  |  |  | 233 |  | 61.1 |  |
| O=C1[O][Pt]2([NH][C@@H]3CCCC[C@H]3[NH]2)[O]C1=O [Oxaliplatin, oxaliplatin, reference compound] |  |  |  |  |  |  |  | GI50 [8]: 5000 nM |
